For 28 compounds, IC50 results are on record in US20240158392A1 (Janssen Biotech, Inc., priority 2021, published 2024).

In this test the target is SIK2 (Homo sapiens, UniProt Q9H0K1). Nature of the test: SIK2 Enzymatic Assay High Version 2 (High ATP). In kind it is biochemical. An outline of the steps: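 At room temperature, enzyme (6 nM, 2× final) was preincubated with compound for 30 min, then 6 mM ATP and 400 μM HDAC5tide (both 2× final) were added for 2 h. ADP formed was measured by ADP-Glo Max (2 h reagent, 1 h detection) using luminescence.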
SIK2, sequence (Q9H0K1 whole entry, species assumed): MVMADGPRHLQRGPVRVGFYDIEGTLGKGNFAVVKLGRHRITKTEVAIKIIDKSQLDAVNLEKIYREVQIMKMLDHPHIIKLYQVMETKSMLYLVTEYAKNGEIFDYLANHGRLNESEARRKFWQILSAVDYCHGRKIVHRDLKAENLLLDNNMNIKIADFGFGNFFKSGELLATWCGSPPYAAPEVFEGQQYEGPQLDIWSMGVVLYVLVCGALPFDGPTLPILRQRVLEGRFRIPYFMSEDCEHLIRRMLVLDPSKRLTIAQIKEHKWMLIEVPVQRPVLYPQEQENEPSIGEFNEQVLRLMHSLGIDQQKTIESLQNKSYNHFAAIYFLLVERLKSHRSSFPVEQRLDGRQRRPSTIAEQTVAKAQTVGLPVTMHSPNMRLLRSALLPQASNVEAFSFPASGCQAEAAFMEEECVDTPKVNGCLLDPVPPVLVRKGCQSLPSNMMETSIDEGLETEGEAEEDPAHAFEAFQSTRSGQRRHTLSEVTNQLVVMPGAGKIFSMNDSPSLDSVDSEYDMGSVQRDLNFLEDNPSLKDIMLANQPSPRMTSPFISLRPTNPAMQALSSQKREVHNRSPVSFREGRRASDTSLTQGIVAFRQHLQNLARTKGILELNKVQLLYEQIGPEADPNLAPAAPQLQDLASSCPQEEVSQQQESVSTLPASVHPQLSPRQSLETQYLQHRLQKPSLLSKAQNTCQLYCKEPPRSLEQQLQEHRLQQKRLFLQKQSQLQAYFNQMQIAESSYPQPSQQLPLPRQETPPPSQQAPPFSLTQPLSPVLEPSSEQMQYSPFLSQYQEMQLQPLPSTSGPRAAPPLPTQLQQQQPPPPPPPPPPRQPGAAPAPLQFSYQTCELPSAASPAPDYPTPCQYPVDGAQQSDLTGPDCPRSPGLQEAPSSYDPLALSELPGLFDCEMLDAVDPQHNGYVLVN

The mark [1] stands for this setting: enzyme 6 nM, 6 mM ATP and 400 μM HDAC5tide (each 2× final concentration), 30 minutes pre-incubation, 2 hours, ADP-Glo Max luminescence, read-out: SIK2 high ATP IC50 (μM) (Test Example 2).

Read-outs that look alike come from different tables or passages of the source.

As usually defined, the IC50 is the concentration that inhibits the measured activity by half. `Cc1cc(-c2ccn3nc(Nc4cc(C)nc(C)n4)cc3c2)c(O[C@@H]2[C@@H]3CO[C@H]2CN3)cn1` [Example 524, N-(2,6-dimethylpyrimidin-4-yl)-5-[2-methyl-5-[[(1S,4S,7R)-2-oxa-5-azabicyclo[2.2.1]heptan-7-yl]oxy]-4-pyridyl]pyrazolo[1,5-a]pyridin-2-amine] came in with a half-maximal inhibitory concentration (IC50) of 0.0203 µM.
The same measure, in the same setting: next, `Cc1cc(-c2ccn3nc(Nc4ccc(C5CC5)nn4)cc3c2)c(O[C@@H]2[C@@H]3CO[C@H]2CN3)cn1` [Example 525, N-(6-cyclopropylpyridazin-3-yl)-5-[2-methyl-5-[[(1S,4S,7R)-2-oxa-5-azabicyclo[2.2.1]heptan-7-yl]oxy]-4-pyridyl]pyrazolo[1,5-a]pyridin-2-amine]: 0.0594 µM.
The same measure, in the same setting: next, `Cc1cc(-c2ccn3nc(NC(=O)C4CC4)cc3c2)c(OC[C@@H]2CCN2)cn1` [Example 526, N-[5-[5-[[(2S)-azetidin-2-yl]methoxy]-2-methyl-4-pyridyl]pyrazolo[1,5-a]pyridin-2-yl]cyclopropanecarboxamide]: 0.0198 µM; `Cc1cc(-c2ccn3nc(Nc4cc(C)nc(C)n4)cc3c2)c(OC[C@H]2CCN2C)cn1` [Example 527, N-(2,6-dimethylpyrimidin-4-yl)-5-[2-methyl-5-[[(2R)-1-methylazetidin-2-yl]methoxy]-4-pyridyl]pyrazolo[1,5-a]pyridin-2-amine]: 0.0081 µM.
In the case of `Cc1cnc(Nc2cc3cc(-c4cc(C)ncc4O[C@@H]4[C@@H]5CO[C@H]4CN5)ccn3n2)cn1` [Example 528, 5-[2-methyl-5-[[(1S,4S,7R)-2-oxa-5-azabicyclo[2.2.1]heptan-7-yl]oxy]-4-pyridyl]-N-(5-methylpyrazin-2-yl)pyrazolo[1,5-a]pyridin-2-amine], the IC50 came to 0.0642 µM.
Still for that read-out and setting: as for `Cc1cc(-c2ccn3nc(NC(=O)C4CC4)cc3c2)c(OC[C@H]2CCN2CCF)cn1` [Example 529, N-[5-[5-[[(2R)-1-(2-fluoroethyl)azetidin-2-yl]methoxy]-2-methyl-4-pyridyl]pyrazolo[1,5-a]pyridin-2-yl]cyclopropanecarboxamide], the figure is 0.000963 µM.
Regarding `CCN1[C@@H]2COC[C@H]1C[C@@H](Oc1cnc(C)cc1-c1ccn3nc(Nc4ccc(C(=O)NC)cn4)cc3c1)C2` [Example 530, 6-[[5-[5-[[(1S,5R)-9-ethyl-3-oxa-9-azabicyclo[3.3.1]nonan-7-yl]oxy]-2-methyl-4-pyridyl]pyrazolo[1,5-a]pyridin-2-yl]amino]-N-methyl-pyridine-3-carboxamide], the IC50 is 0.00236 µM.
`CNC(=O)c1ccc(Nc2cc3cc(-c4cc(C)ncc4O[C@H]4C[C@H]5COC[C@@H](C4)N5C(C)C)ccn3n2)nc1` [Example 531, 6-[[5-[5-[[(1S,5R)-9-isopropyl-3-oxa-9-azabicyclo[3.3.1]nonan-7-yl]oxy]-2-methyl-4-pyridyl]pyrazolo[1,5-a]pyridin-2-yl]amino]-N-methyl-pyridine-3-carboxamide]: the IC50 amounted to 0.00144 µM.
Same read-out and setting: as for `CNC(=O)c1ccc(Nc2cc3cc(-c4cc(C)ncc4O[C@H]4C[C@H]5COC[C@@H](C4)N5CC(C)(C)O)ccn3n2)nc1` [Example 532, 6-[[5-[5-[[(1S,5R)-9-(2-hydroxy-2-methyl-propyl)-3-oxa-9-azabicyclo[3.3.1]nonan-7-yl]oxy]-2-methyl-4-pyridyl]pyrazolo[1,5-a]pyridin-2-yl]amino]-N-methyl-pyridine-3-carboxamide], the figure is 0.0135 µM.
With `Cc1cc(-c2ccn3nc(Nc4cc(C)nc(C(F)(F)F)n4)cc3c2)c(OCC(C)(C)O)cn1` [Example 537, 2-methyl-1-[[6-methyl-4-[2-[[6-methyl-2-(trifluoromethyl)pyrimidin-4-yl]amino]pyrazolo[1,5-a]pyridin-5-yl]-3-pyridyl]oxy]propan-2-ol], the IC50 under setting [1] stood at 0.0241 µM.
For `Cc1cc(-c2ccn3nc(Nc4cc(C)nc(C)n4)cc3c2)c(OC[C@H]2C[C@H](O)C2)cn1` [Example 538, (1r,3r)-3-(((4-(2-((2,6-dimethylpyrimidin-4-yl)amino)pyrazolo[1,5-a]pyridin-5-yl)-6-methylpyridin-3-yl)oxy)methyl)cyclobutan-1-ol], the IC50 under setting [1] came to 0.0129 µM.
The same measure, in the same setting: as for `Cc1cnc(Nc2cc3cc(-c4cc(C)ncc4OCC(C)(C)O)ccn3n2)cn1` [Example 541, 2-methyl-1-[[6-methyl-4-[2-[(5-methylpyrazin-2-yl)amino]pyrazolo[1,5-a]pyridin-5-yl]-3-pyridyl]oxy]propan-2-ol], the figure is 0.0471 µM; as for `Cc1cc(-c2ccn3nc(Nc4cc(C)nc(C)n4)cc3c2)c(O[C@H]2C[C@H](N)C2)cn1` [Example 545, 5-(5-((1r,3r)-3-aminocyclobutoxy)-2-methylpyridin-4-yl)-N-(2,6-dimethylpyrimidin-4-yl)pyrazolo[1,5-a]pyridin-2-amine], 0.0134 µM; as for `Cc1cc(-c2ccn3nc(Nc4cc(C)nc(C)n4)cc3c2)c(OCC2(C)COC2)cn1` [Example 546, N-(2,6-dimethylpyrimidin-4-yl)-5-[2-methyl-5-[(3-methyloxetan-3-yl)methoxy]-4-pyridyl]pyrazolo[1,5-a]pyridin-2-amine], 0.0239 µM.
For the compound `Cc1cc(-c2ccn3nc(Nc4cc(C)nc(C)n4)cc3c2)c(OC2CCS(=O)(=O)CC2)cn1` [Example 550, N-(2,6-dimethylpyrimidin-4-yl)-5-[5-(1,1-dioxothian-4-yl)oxy-2-methyl-4-pyridyl]pyrazolo[1,5-a]pyridin-2-amine], under setting [1], the IC50 came to 0.0055 µM.
For the compound `Cc1cc(-c2ccn3nc(Nc4cc(C)nc(C)n4)cc3c2)c(OC2CCC(S(C)(=O)=O)CC2)cn1` (stereo not shown) [Example 551, N-(2,6-dimethylpyrimidin-4-yl)-5-[2-methyl-5-(4-methylsulfonylcyclohexoxy)-4-pyridyl]pyrazolo[1,5-a]pyridin-2-amine], the IC50 under setting [1] is 0.00832 µM.
Still for that read-out and setting: next, `Cc1cc(-c2ccn3nc(Nc4cc(C)nc(C)n4)cc3c2)c(OC2CCC(C#N)CC2)cn1` (stereo not shown) [Example 552, 4-[[4-[2-[(2,6-dimethylpyrimidin-4-yl)amino]pyrazolo[1,5-a]pyridin-5-yl]-6-methyl-3-pyridyl]oxy]cyclohexanecarbonitrile]: 0.00378 µM.
In the case of `Cc1cc(-c2ccn3nc(Nc4cc(C)nc(C)n4)cc3c2)c(OCc2ccccc2OC(F)F)cn1` [Example 553, 5-[5-[[2-(difluoromethoxy)phenyl]methoxy]-2-methyl-4-pyridyl]-N-(2,6-dimethylpyrimidin-4-yl)pyrazolo[1,5-a]pyridin-2-amine], the IC50 under setting [1] is 0.0101 µM.
Same read-out and setting: as for `Cc1cc(-c2ccn3nc(Nc4cc(C)nc(C)n4)cc3c2)c(OC[C@H](C)C(C)(C)O)cn1` [Example 554, (3S)-4-[[4-[2-[(2,6-dimethylpyrimidin-4-yl)amino]pyrazolo[1,5-a]pyridin-5-yl]-6-methyl-3-pyridyl]oxy]-2,3-dimethyl-butan-2-ol], the figure is 0.0275 µM; as for `Cc1cc(-c2ccn3nc(Nc4cc(C)nc(C)n4)cc3c2)c(OCCC(C)(C)O)cn1` [Example 555, 4-[[4-[2-[(2,6-dimethylpyrimidin-4-yl)amino]pyrazolo[1,5-a]pyridin-5-yl]-6-methyl-3-pyridyl]oxy]-2-methyl-butan-2-ol], 0.00997 µM.
With `Cc1cc(-c2ccn3nc(Nc4cc(C)nc(C)n4)cc3c2)c(O[C@H]2CC[C@@H](C#N)CC2)cn1` [Example 556, (1s,4s)-4-((4-(2-((2,6-dimethylpyrimidin-4-yl)amino)pyrazolo[1,5-a]pyridin-5-yl)-6-methylpyridin-3-yl)oxy)cyclohexane-1-carbonitrile], the IC50 under setting [1] amounted to 0.0371 µM.
Still for that read-out and setting: next, `Cc1cc(-c2ccn3nc(Nc4cc(C)nc(C)n4)cc3c2)c(OCCN)cn1` [Example 557, 5-[5-(2-aminoethoxy)-2-methyl-4-pyridyl]-N-(2,6-dimethylpyrimidin-4-yl)pyrazolo[1,5-a]pyridin-2-amine]: 0.0494 µM.
Regarding `Cc1cc(-c2ccn3nc(Nc4cc(C)nc(C)n4)cc3c2)c(OC[C@H](O)C2CC2)cn1` [Example 558, (1R)-1-cyclopropyl-2-[[4-[2-[(2,6-dimethylpyrimidin-4-yl)amino]pyrazolo[1,5-a]pyridin-5-yl]-6-methyl-3-pyridyl]oxy]ethanol], the concentration for half-maximal inhibition (IC50) under setting [1] was 0.0695 µM.
Turning to `Cc1cc(-c2ccn3nc(Nc4cc(C)nc(C)n4)cc3c2)c(OC[C@@H](O)C2CC2)cn1` [Example 559, (1S)-1-cyclopropyl-2-[[4-[2-[(2,6-dimethylpyrimidin-4-yl)amino]pyrazolo[1,5-a]pyridin-5-yl]-6-methyl-3-pyridyl]oxy]ethanol], under setting [1], the IC50 stood at 0.00686 µM.
On the same count and under the same terms, next, `Cc1cc(-c2ccn3nc(Nc4cc(C)nc(C)n4)cc3c2)c(OCC2(C#N)CC2)cn1` [Example 560, 1-[[4-[2-[(2,6-dimethylpyrimidin-4-yl)amino]pyrazolo[1,5-a]pyridin-5-yl]-6-methyl-3-pyridyl]oxymethyl]cyclopropanecarbonitrile]: 0.0616 µM.
The same measure, in the same setting: as for `Cc1cc(-c2ccn3nc(Nc4cc(C)c(=O)n(C5CC5)n4)cc3c2)c(OC[C@@H]2COCCO2)cn1` [Example 561, 2-cyclopropyl-6-[[5-[5-[[(2S)-1,4-dioxan-2-yl]methoxy]-2-methyl-4-pyridyl]pyrazolo[1,5-a]pyridin-2-yl]amino]-4-methyl-pyridazin-3-one], the figure is 0.0619 µM.
Same read-out and setting: as for `N#CCN1CC[C@@H](COc2cnc(C#N)cc2-c2ccn3nc(NC(=O)C4CC4)cc3c2)C1` [Example 563, N-[5-[2-cyano-5-[[(3R)-1-(cyanomethyl)pyrrolidin-3-yl]methoxy]-4-pyridyl]pyrazolo[1,5-a]pyridin-2-yl]cyclopropanecarboxamide], the figure is 0.038 µM; as for `Cn1ccc(Nc2cc3cc(-c4cc(C#N)cnc4OC[C@@H]4CNCCO4)ccn3n2)n1` [Example 564, 5-[2-[(1-methylpyrazol-3-yl)amino]pyrazolo[1,5-a]pyridin-5-yl]-6-[[(2S)-morpholin-2-yl]methoxy]pyridine-3-carbonitrile], 0.00339 µM.
